# In patent US20100286081A1, “5-AMINO-3-(2',3'-DI-O-ACETYL-BETA-D-RIBOFURANOSYL)-3H-THIAZOLO[4,5-D] PYRIMIDIN-2-OCE SALTS AND CRYSTALLINE FORMS” (Anadys Pharmaceuticals Inc., priority 2006, published 2010):
# Tests used:
# [1] = Water sorption curve (DVS analysis at 25° C.); assay type: physicochemical; conditions: for Weight change in %: DVS analysis at 25° C.
# Excerpt: Water Sorption Curve of 5-amino-3-(2′,3′-di-O-acetyl-beta-D-ribofuranosyl)-3H-thiazolo[4,5-d]pyrimidin-2-one Amorphous Base (FIG. 6)
# Water Sorption Curve of 5-amino-3-(2′,3′-di-O-acetyl-beta-D-ribofuranosyl)-3H-thiazolo[4,5-d]pyrimidin-2-one Maleate Salt (FIG. 7)
# [2] = Stability of polymorphic form; assay type: physicochemical
Structure (SMILES),Hygroscopicity (in words) [1],Weight change in % ([1]; 0-20% r.h.),Weight change in % ([1]; 0-40% r.h.),Weight change in % ([1]; 0-60% r.h.),Weight change in % ([1]; 0-80% r.h.),Weight change in % ([1]; 0-95% r.h.),Stability of polymorphic form (in words) [2]
"CC(=O)O[C@@H]1[C@H](OC(C)=O)[C@@H](CO)O[C@H]1n1c(=O)sc2cnc(N)nc21 [5-Amino-3-(2′,3′-di-O-acetyl-beta-D-ribofuranosyl)-3H-thiazolo[4,5-d]pyrimidin-2-one]",hygroscopic,0.50%,0.86%,1.55%,3.07%,4.68%,
"CC(=O)O[C@@H]1[C@H](OC(C)=O)[C@@H](CO)O[C@H]1n1c(=O)sc2cnc(N)nc21.O=C(O)/C=C\C(=O)O [Form B, 5-Amino-3-(2′,3′-di-O-acetyl-beta-D-ribofuranosyl)-3H-thiazolo[4,5-d]pyrimidin-2-one maleate]",,,,,,,particularly stable polymorphic form
"CC(=O)O[C@@H]1[C@H](OC(C)=O)[C@@H](CO)O[C@H]1n1c(=O)sc2cnc(N)nc21.O=C(O)/C=C\C(=O)O [5-amino-3-(2′,3′-di-O-acetyl-beta-D-ribofuranosyl)-3H-thiazolo[4,5-d]pyrimidin-2-one maleate]",,0.08%,0.17%,0.23%,0.32%,0.31%,
